Measured values published in patent US20260022142A1, “MACROCYCLIC IMMUNOMODULATORS” (Bristol-Myers Squibb Company, priority 2022, published 2026).
Bridge positions count the residues as written; N and C are the ends. Square brackets hold non-standard residues; d marks the D form. Peptide text beside a SMILES is read from it. * marks the point of attachment. Tyr(3,5-F2) = N[C@@H](Cc1cc(F)c(O)c(F)c1)C(=O)O; Tyr(3-Cl) = N[C@@H](Cc1ccc(O)c(Cl)c1)C(=O)O; Bip = N[C@@H](Cc1ccc(-c2ccccc2)cc1)C(=O)O; Phe(3-CN) = N#Cc1cccc(C[C@H](N)C(=O)O)c1; Phe(4-CN) = N#Cc1ccc(C[C@H](N)C(=O)O)cc1; Phe(3-Me) = Cc1cccc(C[C@H](N)C(=O)O)c1; Phe(4-F) = N[C@@H](Cc1ccc(F)cc1)C(=O)O; Phe(4-Me) = Cc1ccc(C[C@H](N)C(=O)O)cc1; mTyr = N[C@@H](Cc1cccc(O)c1)C(=O)O; 4Pal = N[C@@H](Cc1ccncc1)C(=O)O; Cha = N[C@@H](CC1CCCCC1)C(=O)O; dDab = NCC[C@@H](N)C(=O)O; Carboxymethyl = O=C(O)C*; Orn = NCCC[C@H](N)C(=O)O; Aun = NCCCCCCCCCCC(=O)O; Dab = NCC[C@H](N)C(=O)O; Dap = NC[C@H](N)C(=O)O; AEEA = NCCOCCOCC(=O)O; Ac3c = NC1(C(=O)O)CC1

What follows are compounds tested against T1, PD-1/PD-L1 interaction (PE-labeled human PD-L1-Ig binding to Jurkat cell line over-expressing human PD-1) (Homo sapiens, UniProt Q15116) (assay: Jurkat-PD-1 Cell Binding High-Content Screening Assay (CBA)). Details: Jurkat cell line over-expressing human PD-1; PE-labeled PD-L1-Ig 20 nM final; read-out: Jurkat hPD1-PDL1 IC50.
T1 construct: expressed in transfected cells; host or cells: Jurkat
T1 sequence (Q15116 25-288): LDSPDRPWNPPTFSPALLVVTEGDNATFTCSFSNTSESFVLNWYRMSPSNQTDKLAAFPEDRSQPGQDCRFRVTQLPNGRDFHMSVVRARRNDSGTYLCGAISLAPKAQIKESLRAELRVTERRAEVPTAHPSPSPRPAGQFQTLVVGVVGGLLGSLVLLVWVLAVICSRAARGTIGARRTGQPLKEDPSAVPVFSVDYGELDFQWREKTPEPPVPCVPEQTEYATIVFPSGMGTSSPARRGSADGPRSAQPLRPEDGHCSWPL
Assay type: cell-based
Procedure, shortened: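 First, compound is added to PD-1-expressing Jurkat cells in serum-containing DMEM and left 2 h at 37° C. Next, PE-conjugated PD-L1-Ig is introduced at 20 nM final concentration for 1 hour. Finally, cells are fixed in 4% paraformaldehyde with Hoechst 33342, washed and imaged.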
With `Cc1cccc(C[C@@H]2NC(=O)[C@H](CC(=O)O)NC(=O)[C@H](Cc3ccc(OCC(=O)O)cc3)NC(=O)[C@H](CN)NC(=O)CSC[C@@H](C(=O)N[C@@H](CCN)C(=O)NCCOCCOCC(=O)NCCCCCCCCCCC(=O)O)NC(=O)[C@H](CCCN)NC(=O)[C@H](C(C)C)NC(=O)[C@H](CC3CCCCC3)NC(=O)[C@H](CCN)NC(=O)[C@@H](CC(C)C)NC(=O)[C@H](CCCN)NC(=O)[C@H](Cc3ccc(O)cc3)NC(=O)[C@H](Cc3ccc(-c4ccccc4)cc3)NC(=O)[C@H](Cc3ccc(F)cc3)NC2=O)c1` [Compound 2070] ({CH2CO}-[Dap]Y(Carboxymethyl)D[Phe(3-Me)][Phe(4-F)][Bip]Y[Orn][dL][Dab][Cha]V[Orn]C[Dab][AEEA][Aun]-OH; thioether N-14) the IC50 was 11.6 nM. Work on `Cc1cccc(C[C@@H]2NC(=O)[C@H](CC(=O)O)NC(=O)[C@H](Cc3ccc(OCC(=O)O)cc3)NC(=O)[C@H](CN)NC(=O)CSC[C@@H](C(=O)N[C@@H](CCN)C(=O)NCCOCCOCC(=O)NCCCCCCCCCCC(=O)O)NC(=O)[C@H](CCCN)NC(=O)[C@H](C(C)C)NC(=O)[C@H](CC3CCCCC3)NC(=O)[C@H](CCN)NC(=O)[C@@H](CC(C)C)NC(=O)[C@H](CCCN)NC(=O)[C@H](Cc3ccc(O)cc3)NC(=O)[C@H](Cc3ccc(-c4ccccc4)cc3)NC(=O)[C@H](Cc3ccc(C#N)cc3)NC2=O)c1` [Compound 2071] ({CH2CO}-[Dap]Y(Carboxymethyl)D[Phe(3-Me)][Phe(4-CN)][Bip]Y[Orn][dL][Dab][Cha]V[Orn]C[Dab][AEEA][Aun]-OH; thioether N-14) yielded an IC50 of 4.8 nM. Work on `Cc1cccc(C[C@@H]2NC(=O)[C@H](CC(=O)O)NC(=O)[C@H](Cc3ccc(OCC(=O)O)cc3)NC(=O)[C@H](CN)NC(=O)CSC[C@@H](C(=O)N[C@@H](CCN)C(=O)NCCOCCOCC(=O)NCCCCCCCCCCC(=O)O)NC(=O)[C@H](CCCN)NC(=O)[C@H](C(C)C)NC(=O)[C@H](CC3CCCCC3)NC(=O)[C@H](CCN)NC(=O)[C@@H](CC(C)C)NC(=O)[C@H](CCCN)NC(=O)[C@H](Cc3ccc(O)cc3)NC(=O)[C@H](Cc3ccc(-c4ccccc4)cc3)NC(=O)[C@H](Cc3cccc(C#N)c3)NC2=O)c1` [Compound 2072] ({CH2CO}-[Dap]Y(Carboxymethyl)D[Phe(3-Me)][Phe(3-CN)][Bip]Y[Orn][dL][Dab][Cha]V[Orn]C[Dab][AEEA][Aun]-OH; thioether N-14) yielded an IC50 of 8.5 nM. `Cc1cccc(C[C@@H]2NC(=O)[C@H](CC(=O)O)NC(=O)[C@H](Cc3ccc(OCC(=O)O)cc3)NC(=O)[C@H](CN)NC(=O)CSC[C@@H](C(=O)N[C@@H](CCN)C(=O)NCCOCCOCC(=O)NCCCCCCCCCCC(=O)O)NC(=O)[C@H](CCCN)NC(=O)[C@H](C(C)C)NC(=O)[C@H](CC3CCCCC3)NC(=O)[C@H](CCN)NC(=O)[C@@H](CC(C)C)NC(=O)[C@H](CCCN)NC(=O)[C@H](Cc3ccc(O)cc3)NC(=O)[C@H](Cc3ccc(-c4ccccc4)cc3)NC(=O)[C@H](Cc3ccncc3)NC2=O)c1` [Compound 2073] ({CH2CO}-[Dap]Y(Carboxymethyl)D[Phe(3-Me)][4Pal][Bip]Y[Orn][dL][Dab][Cha]V[Orn]C[Dab][AEEA][Aun]-OH; thioether N-14) showed an IC50 of 8.9 nM. In the case of `Cc1ccc(C[C@@H]2NC(=O)[C@H](Cc3cccc(C)c3)NC(=O)[C@H](CC(=O)O)NC(=O)[C@H](Cc3ccc(OCC(=O)O)cc3)NC(=O)[C@H](CN)NC(=O)CSC[C@@H](C(=O)N[C@@H](CCN)C(=O)NCCOCCOCC(=O)NCCCCCCCCCCC(=O)O)NC(=O)[C@H](CCCN)NC(=O)[C@H](C(C)C)NC(=O)[C@H](CC3CCCCC3)NC(=O)[C@H](CCN)NC(=O)[C@@H](CC(C)C)NC(=O)[C@H](CCCN)NC(=O)[C@H](Cc3ccc(O)cc3)NC(=O)[C@H](Cc3ccc(-c4ccccc4)cc3)NC2=O)cc1` [Compound 2074] ({CH2CO}-[Dap]Y(Carboxymethyl)D[Phe(3-Me)][Phe(4-Me)][Bip]Y[Orn][dL][Dab][Cha]V[Orn]C[Dab][AEEA][Aun]-OH; thioether N-14), the IC50 is reported as 5.5 nM. In the case of `Cc1cccc(C[C@@H]2NC(=O)[C@H](CC(=O)O)NC(=O)[C@H](Cc3ccc(OCC(=O)O)cc3)NC(=O)[C@H](CN)NC(=O)CSC[C@@H](C(=O)N[C@@H](CCN)C(=O)NCCOCCOCC(=O)NCCCCCCCCCCC(=O)O)NC(=O)[C@H](CCCN)NC(=O)[C@H](C(C)C)NC(=O)[C@H](CC3CCCCC3)NC(=O)[C@H](CCN)NC(=O)[C@@H](CC(C)C)NC(=O)[C@H](CCCN)NC(=O)[C@H](Cc3ccc(O)cc3)NC(=O)[C@H](Cc3ccc(-c4ccccc4)cc3)NC(=O)[C@H](Cc3ccc(O)c(Cl)c3)NC2=O)c1` [Compound 2075] ({CH2CO}-[Dap]Y(Carboxymethyl)D[Phe(3-Me)][Tyr(3-Cl)][Bip]Y[Orn][dL][Dab][Cha]V[Orn]C[Dab][AEEA][Aun]-OH; thioether N-14), the IC50 is reported as 14.3 nM. In the case of `Cc1cccc(C[C@@H]2NC(=O)[C@H](CC(=O)O)NC(=O)[C@H](Cc3ccc(OCC(=O)O)cc3)NC(=O)[C@H](CN)NC(=O)CSC[C@@H](C(=O)N[C@@H](CCN)C(=O)NCCOCCOCC(=O)NCCCCCCCCCCC(=O)O)NC(=O)[C@H](CCCN)NC(=O)[C@H](C(C)C)NC(=O)[C@H](CC3CCCCC3)NC(=O)[C@H](CCN)NC(=O)[C@@H](CC(C)C)NC(=O)[C@H](CCCN)NC(=O)[C@H](Cc3ccc(O)cc3)NC(=O)[C@H](Cc3ccc(-c4ccccc4)cc3)NC(=O)[C@H](Cc3cc(F)c(O)c(F)c3)NC2=O)c1` [Compound 2076] ({CH2CO}-[Dap]Y(Carboxymethyl)D[Phe(3-Me)][Tyr(3,5-F2)][Bip]Y[Orn][dL][Dab][Cha]V[Orn]C[Dab][AEEA][Aun]-OH; thioether N-14), the IC50 is reported as 8.4 nM. Compound `Cc1cccc(C[C@@H]2NC(=O)[C@H](CC(=O)O)NC(=O)[C@H](Cc3ccc(OCC(=O)O)cc3)NC(=O)[C@H](CN)NC(=O)CSC[C@@H](C(=O)NC3(C(=O)NCCOCCOCC(=O)NCCCCCCCCCCC(=O)O)CC3)NC(=O)[C@H](CCCN)NC(=O)[C@H](C(C)C)NC(=O)[C@H](CC3CCCCC3)NC(=O)[C@H](CCN)NC(=O)[C@@H](CC(C)C)NC(=O)[C@H](CCCN)NC(=O)[C@H](Cc3ccc(O)cc3)NC(=O)[C@H](Cc3ccc(-c4ccccc4)cc3)NC(=O)[C@H](Cc3ccc(O)cc3)NC2=O)c1` [Compound 2077] ({CH2CO}-[Dap]Y(Carboxymethyl)D[Phe(3-Me)]Y[Bip]Y[Orn][dL][Dab][Cha]V[Orn]C[Ac3c][AEEA][Aun]-OH; thioether N-14) has an IC50 of 6.3 nM. `Cc1cccc(C[C@@H]2NC(=O)[C@H](CC(=O)O)NC(=O)[C@H](Cc3ccc(OCC(=O)O)cc3)NC(=O)[C@H](Cc3ccc(OCC(=O)O)cc3)NC(=O)CSC[C@@H](C(=O)NC3(C(=O)NCCOCCOCC(=O)NCCCCCCCCCCC(=O)O)CC3)NC(=O)[C@H](CCCN)NC(=O)[C@H](C(C)C)NC(=O)[C@H](CC3CCCCC3)NC(=O)[C@H](CCN)NC(=O)[C@@H](CC(C)C)NC(=O)[C@H](CCCN)NC(=O)[C@H](Cc3ccc(O)cc3)NC(=O)[C@H](Cc3ccc(-c4ccccc4)cc3)NC(=O)[C@H](Cc3ccc(O)cc3)NC2=O)c1` [Compound 2078] ({CH2CO}-Y(Carboxymethyl)Y(Carboxymethyl)D[Phe(3-Me)]Y[Bip]Y[Orn][dL][Dab][Cha]V[Orn]C[Ac3c][AEEA][Aun]-OH; thioether N-14) showed an IC50 of 3.9 nM. `CC(C)C[C@H]1NC(=O)[C@H](CCCN)NC(=O)[C@H](Cc2ccc(O)cc2)NC(=O)[C@H](Cc2ccc(-c3ccccc3)cc2)NC(=O)[C@H](Cc2ccc(O)cc2)NC(=O)[C@H](Cc2cccc(O)c2)NC(=O)[C@H](CC(=O)O)NC(=O)[C@H](Cc2ccc(OCC(=O)O)cc2)NC(=O)[C@H](CN)NC(=O)CSC[C@@H](C(=O)N[C@@H](CCN)C(=O)NCCCCCCCCCCC(=O)O)NC(=O)[C@@H](CCN)NC(=O)[C@H](C(C)C)NC(=O)[C@H](CC2CCCCC2)NC(=O)[C@H](CCN)NC1=O` [Compound 2079] ({CH2CO}-[Dap]Y(Carboxymethyl)D[mTyr]Y[Bip]Y[Orn][dL][Dab][Cha]V[dDab]C[Dab][Aun]-OH; thioether N-14) showed an IC50 of 245 nM. Work on `CC(C)C[C@H]1NC(=O)[C@H](CCN)NC(=O)[C@H](Cc2ccc(O)cc2)NC(=O)[C@H](Cc2ccc(-c3ccccc3)cc2)NC(=O)[C@H](Cc2ccc(O)cc2)NC(=O)[C@H](Cc2cccc(O)c2)NC(=O)[C@H](CC(=O)O)NC(=O)[C@H](Cc2ccc(OCC(=O)O)cc2)NC(=O)[C@H](CN)NC(=O)CSC[C@@H](C(=O)N[C@@H](CCN)C(=O)NCCCCCCCCCCC(=O)O)NC(=O)[C@@H](CCN)NC(=O)[C@H](C(C)C)NC(=O)[C@H](CC2CCCCC2)NC(=O)[C@H](CCN)NC1=O` [Compound 2080] ({CH2CO}-[Dap]Y(Carboxymethyl)D[mTyr]Y[Bip]Y[Dab][dL][Dab][Cha]V[dDab]C[Dab][Aun]-OH; thioether N-14) yielded an IC50 of 218 nM. `Cc1cccc(C[C@@H]2NC(=O)[C@H](CC(=O)O)NC(=O)[C@H](Cc3ccc(OCC(=O)O)cc3)NC(=O)[C@H](CCCNC(=N)N)NC(=O)CSC[C@@H](C(=O)N[C@@H](CCN)C(=O)NCCCCCCCCCCC(=O)O)NC(=O)[C@H]([C@@H](C)O)NC(=O)[C@H](C(C)C)NC(=O)[C@H](CC3CCCCC3)NC(=O)[C@H](CCN)NC(=O)[C@@H](CC(C)C)NC(=O)[C@H](CCCN)NC(=O)[C@H](Cc3ccc(OCC(=O)O)cc3)NC(=O)[C@H](Cc3ccc(-c4ccccc4)cc3)NC(=O)[C@H](Cc3ccc(O)cc3)NC2=O)c1` [Compound 2081] ({CH2CO}-RY(Carboxymethyl)D[Phe(3-Me)]Y[Bip]Y(Carboxymethyl)[Orn][dL][Dab][Cha]VTC[Dab][Aun]-OH; thioether N-14) gave an IC50 of 11.7 nM. For `Cc1cccc(C[C@@H]2NC(=O)[C@H](CC(=O)O)NC(=O)[C@H](Cc3ccc(OCC(=O)O)cc3)NC(=O)[C@H](CCCNC(=N)N)NC(=O)CSC[C@@H](C(=O)N[C@@H](CCN)C(=O)NCCCCCCCCCCC(=O)O)NC(=O)[C@H](CO)NC(=O)[C@H](C(C)C)NC(=O)[C@H](CC3CCCCC3)NC(=O)[C@H](CCN)NC(=O)[C@@H](CC(C)C)NC(=O)[C@H](CCCN)NC(=O)[C@H](Cc3ccc(OCC(=O)O)cc3)NC(=O)[C@H](Cc3ccc(-c4ccccc4)cc3)NC(=O)[C@H](Cc3ccc(O)cc3)NC2=O)c1` [Compound 2082] ({CH2CO}-RY(Carboxymethyl)D[Phe(3-Me)]Y[Bip]Y(Carboxymethyl)[Orn][dL][Dab][Cha]VSC[Dab][Aun]-OH; thioether N-14), the IC50 was 22.7 nM.
